In patent EP1137386B1, “USE OF TRICLOSAN AS AN AN[…]” (Jawaharlal Nehru Centre For Advanced Scientific Research, priority 1999, dated 2001):

Experiments:
Plasmodium berghei = test: Protection of mice against malaria after administration in vivo (P. berghei infected mice); set-up: species or system Swiss mice; settings: for mice survived till day 14 / mice survived till 14th day: subcutaneously in DMSO, day 1 of infection and next 6 days, P. berghei infected male swiss mice
Text: The present invention involves the use of triclosan for the manufacture of an antimalarial agent to inhibit the growth of the murine malaria parasite Plasmodium berghei as well. The effect of various concentration of triclosan in controlling parasitemia is monitored in Plasmodium berghei infected mice. • 1. Plasmodium berghei infection: P. berghei parasite is maintained in Swiss male mice through serial blood passage. • 2. Triclosan treatment: Swiss mice (5 animals/group) are infected on day zero with about 10^6 infected red blood cells (IRBC). The animals are kept under observation to record parasitemia and mortality. Parasitemia is determined by counting 10^3 red cells in a thin blood smear stained with Giesma and expressed as number of parasitized cells/100 erythrocytes. The animals given only dimethylsulfoxide (DMSO) are used as controls and referred to as untreated animals. Level of parasitemia is >1% on the first day of triclosan treatment. Parasitemia is monitored every 24 hrs, for 7-8 days.
Male swiss mice were infected with P. berghei. The animals were kept under observation and parasitemia was recorded daily. Triclosan (0.8, 1.6, 3.0, 8.0, 14.0 and 28.0 mg/kg body weight of mice respectively) in DMSO was given subcutaneously on day 1 of infection when parasitemia was>1% and subsequently for the next 6 days. Experiments with triclosan were conducted with a group of five animals, each for the dosages mentioned above. DMSO was given to control animals (6) and were referred to as untreated animals. Parasitemia and mortality were recorded till the untreated mice died. Typically all the six mice in the control group died by day 9 of infection while 3, 3 and 4 mice out of 5 treated with 0.8, 1.6 and 3.0 mg triclosan/kg (body weight), survived till day 14. All the mice (5 out of 5) survived till 14th day when treated with 8.0, 14.0 and 28.0 mg triclosan/kg (body weight).

Plasmodium falciparum = test: In vitro effect on growth of Plasmodium falciparum (parasitemia and morphology in Giemsa stained smears); assay type: cell-based; settings: P. falciparum cultures in human erythrocytes
Procedure: Plasmodium falciparum cultures with 5-6% parasitemia are diluted with washed 50% suspension of red blood cells and CRPMI so that the initial parasitemia becomes 1% and hematocrit 2%. 1.5 millilitres of this diluted infected cell suspension is placed in flat bottom vials, which are kept in a desiccator equipped with a stopcock. A candle is lit and the cover of the desiccator is put on with the stopcock open. When the candle goes out, the stopcock is closed. This is a simple but effective way to produce an atmosphere of low O2(1-5%) and high CO2 content (7%). Fresh medium is provided daily by withdrawing the supernatant and supplementing cells with 1.25 millilitres of CRPMI. Fresh erythrocytes are added every third or fourth day when the parasitemia reaches 6-8%, bringing it down to 1%. In cultures, all stages of the asexual cycle are seen at any one time, since the cultures have lost some of the synchronicity characteristic of P. falciparum in man. Delicate rings with two chromatin dots are common. Schizonts or segmenters show 15-18 merozoites, the same numbers seen in material from human infections.
This is done by observing the stained smear of infected red blood cells under the microscope in oil immersion. The following stages of Plasmodium falciparum with their characteristic features can be seen. These stages are as follows: • 1. […]

[1] = system: cell free system for the synthesis of fatty acids of Plasmodium falciparum; test: Incorporation of [14C] malonyl-CoA in fatty acids in cell free system, scintillation counting and TLC/autoradiography; assay type: biochemical
Procedure: For cell free fatty acid synthesis in E.Coli, See Δ P.W. Majerus et al. (1968), Methods in Enzymol, 14, 43-52.
The pellet was washed four to five times with cold phosphate buffer saline and after washing, the pellet was suspended in 3.0 ml of phosphate buffer saline and equal volume of 0.15% saponin was added to isolate free parasites. (See specific embodiments). The late ring stage (trophozoites) of the parasites thus isolated were washed once thoroughly with PBS and the cells suspended in 0.4 ml of 1 mM potassium phosphate buffer pH 7.0 and sonicated for 15 sec. The cell lysate (2.0 mg cell extract protein) thus prepared was mixed with 200 µl of 200 mM of potassium phosphate buffer pH 7.0 containing 70 uM acetyl CoA, 8 mM glucose-6-phosphate, 3 mM each of NADH and NADPH, 0.4 mM EDTA, 4 units of glucose-6-phosphate dehydrogenase, 45 uM [^14C]malonyl-CoA (specific activity 54.2 mCi/mmol, DuPont) and 3 mM dithiothreitol (DTT). To this 200 µg of DTT reduced acyl carrier protein (ACP) from E. coli (Sigma) in 25 µl of 75 mM phosphate buffer was added. The reaction mixture was incubated for 30 min at 37°C. […] A part (25 µl) of the sample in methanol was counted by scintillation counting to determine also the extent of incorporation of [^14C] malonyl-CoA in fatty acids both in the presence and absence of Triclosan.

P. falciparum = test: Uptake of [35S] methionine as an index of inhibition of parasite growth; assay type: cell-based; settings: P. falciparum in culture, different concentrations of triclosan (Fig. 5)
Procedure: Uptake of [^35S] methionine, NEN, DuPont, (specific activity 1175 Ci/mmol) is used as an index of parasite growth. The final isotope concentration to be added in each well is 100 µCi/ml culture. Before an hour of total incubation period (24, 48, or 72 h) 20 µl of the isotope in culture medium is added to each well and incubated for an additional 1 hr. After incubation, contents of the well are pipetted into microcentrifuge tubes kept on ice. The samples are spun at 3000 g for 10 sec. The supernatant is discarded and the pellet washed twice in 1.0 ml of 0.9% NaCl. The pellet is lysed with 50 µl distilled water and spotted onto Whatman No. 3 discs (presoaked in 10% TCA with cold methionine and dried). After spotting, these discs are allowed to dry and then they are treated with hot TCA, cold TCA (10% throughout), alcohol ether (2:1, v/v) and finally with ether. […] The discs are air dried after ether treatment, and counted in optiphase 'Hisafe' scintillation fluid (Wallac Scintillation Products, U.K.) in a Wallac β-counter (Model 1409, Finland).
The drug and parasites were aliquoted in required number of rows of wells in 96 well titre plates as described in example 1. […] After ether treatment, the discs were air dried, placed in scintillation fluid phase III from Wallac and counted in Wallac β-counter.

Oc1cc(Cl)ccc1Oc1ccc(Cl)cc1Cl [triclosan, 2,4,4'-trichloro-2'-hydroxydiphenyl ether]
mice survived till day 14 (Plasmodium berghei; 0.8 mg/kg body weight): 3 mice out of 5 | mice survived till day 14 (Plasmodium berghei; 1.6 mg/kg body weight): 3 mice out of 5 | mice survived till day 14 (Plasmodium berghei; 3.0 mg/kg body weight): 4 mice out of 5 | mice survived till 14th day (Plasmodium berghei; 8.0 mg/kg body weight): 5 out of 5 | mice survived till 14th day (Plasmodium berghei; 14.0 mg/kg body weight): 5 out of 5 | mice survived till 14th day (Plasmodium berghei; 28.0 mg/kg body weight): 5 out of 5 | mortality (Plasmodium berghei; P. berghei infected Swiss mice, untreated animals die by 8 days after the infection): delayed mortality is observed in treated animals depending on dose | parasitemia (Plasmodium berghei; injection in mice infected with P. berghei): able to curtail the parasitemia | growth of the human malaria parasite in vitro (Plasmodium falciparum): inhibits the growth of the human malaria parasite in vitro in a very potent manner | incorporation of [^14C] malonyl CoA in fatty acids ([1]; cell free system, 0.15, 0.225, 0.3, 0.6 and 1.2 µg of triclosan, 30 min at 37°C): inhibits incorporation of [^14C] malonyl CoA in fatty acids | longer chain fatty acids synthesized (elongation reaction) ([1]; cell free system, TLC with autoradiography): progressive decline in the longer chain fatty acids | inhibition of protein synthesis, uptake of (^35S) methionine (P. falciparum): reduced uptake of (^35S) methionine
